Reference: ChEMBL document CHEMBL1681651, “A broad spectrum anticancer nucleoside with selective toxicity against human colon cells in vitro” (2011)

Experiments:
Assay type in all cases: functional
HL-60(TB) = assay: Growth inhibition of human HL-60(TB) cells assessed as cell growth at 10 uM after 48 hrs by SRB assay; conditions: HL-60, 48 h, read-out: Activity
A498 [1] = assay: Growth inhibition of human A498 cells assessed as cell growth at 10 uM after 48 hrs by SRB assay; conditions: A498, 48 h, read-out: Activity
SF-295 [2] = assay: Growth inhibition of human SF295 cells assessed as cell growth at 10 uM after 48 hrs by SRB assay; conditions: SF-295, 48 h, read-out: Activity
OVCAR-8 [3] = assay: Growth inhibition of human OVCAR8 cells assessed as cell growth at 10 uM after 48 hrs by SRB assay; conditions: OVCAR-8, 48 h, read-out: Activity
HCT-15 [4] = assay: Growth inhibition of human HCT15 cells assessed as cell growth at 10 uM after 48 hrs by SRB assay; conditions: HCT-15, 48 h, read-out: Activity
A549 = assay: Growth inhibition of human A549 cells assessed as cell growth at 10 uM after 48 hrs by SRB assay; conditions: A549, 48 h, read-out: Activity
NCI-H23 [5] = assay: Growth inhibition of human NCI-H23 cells assessed as cell growth at 10 uM after 48 hrs by SRB assay; conditions: NCI-H23, 48 h, read-out: Activity
NCI-H23 [6] = assay: Growth inhibition of human NCI-H23 cells assessed as cell growth at 100 uM after 48 hrs by SRB assay; conditions: NCI-H23, 48 h, read-out: Activity
OVCAR-8 [7] = assay: Growth inhibition of human OVCAR8 cells assessed as cell growth at 100 uM after 48 hrs by SRB assay; conditions: OVCAR-8, 48 h, read-out: Activity
SK-MEL-5 = assay: Growth inhibition of human SK-MEL-5 cells assessed as cell growth at 0.1 uM after 48 hrs by SRB assay; conditions: SK-MEL-5, 48 h, read-out: Activity
HCC 2998 = assay: Growth inhibition of human HCC2998 cells assessed as cell growth at 100 uM after 48 hrs by SRB assay; conditions: HCC 2998, 48 h, read-out: Activity
HOP-92 = assay: Growth inhibition of human HOP92 cells assessed as cell growth at 1 mM after 48 hrs by SRB assay; conditions: HOP-92, 48 h, read-out: Activity
SN12C = assay: Growth inhibition of human SN12C cells assessed as cell growth at 1 uM after 48 hrs by SRB assay; conditions: read-out: Activity
SF-268 [8] = assay: Growth inhibition of human SF268 cells assessed as cell growth at 1 mM after 48 hrs by SRB assay; conditions: SF-268, 48 h, read-out: Activity
SNB-19 = assay: Growth inhibition of human SNB19 cells assessed as cell growth at 1 mM after 48 hrs by SRB assay; conditions: SNB-19, 48 h, read-out: Activity
T47D = assay: Growth inhibition of human T47D cells assessed as cell growth at 0.1 uM after 48 hrs by SRB assay; conditions: read-out: Activity
MDA-MB-468 = assay: Growth inhibition of human MDA-MB-468 cells after 48 hrs by […] growth inhibition assay; conditions: MDA-MB-468, 48 h, read-out: LC50 (the source's name)
OVCAR-5 [9] = assay: Growth inhibition of human OVCAR5 cells assessed as cell growth at 100 uM after 48 hrs by SRB assay; conditions: OVCAR-5, 48 h, read-out: Activity
UACC-62 = assay: Growth inhibition of human UACC62 cells assessed as cell growth at 100 uM after 48 hrs by SRB assay; conditions: UACC-62, 48 h, read-out: Activity
SF-268 [10] = assay: Growth inhibition of human SF268 cells after 48 hrs by […] growth inhibition assay; conditions: SF-268, 48 h
ACHN = assay: Growth inhibition of human ACHN cells assessed as cell growth at 0.1 uM after 48 hrs by SRB assay; conditions: read-out: Activity
Malme-3M [11] = assay: Growth inhibition of human MALME-3M cells assessed as cell growth at 0.1 uM after 48 hrs by SRB assay; conditions: read-out: Activity
OVCAR-3 [12] = assay: Growth inhibition of human OVCAR3 cells assessed as cell growth at 0.1 uM after 48 hrs by SRB assay; conditions: OVCAR-3, 48 h, read-out: Activity
OVCAR-3 [13] = assay: Growth inhibition of human OVCAR3 cells assessed as cell growth at 1 mM after 48 hrs by SRB assay; conditions: OVCAR-3, 48 h, read-out: Activity
SF-295 [14] = assay: Growth inhibition of human SF295 cells assessed as cell growth at 1 mM after 48 hrs by SRB assay; conditions: SF-295, 48 h, read-out: Activity
HCT-15 [15] = assay: Growth inhibition of human HCT15 cells assessed as cell growth at 1 mM after 48 hrs by SRB assay; conditions: HCT-15, 48 h, read-out: Activity
786-0 [16] = assay: Growth inhibition of human 786-0 cells assessed as cell growth at 1 mM after 48 hrs by SRB assay; conditions: 786-0, 48 h, read-out: Activity
NCI-H322M = assay: Growth inhibition of human NCI-H322M cells assessed as cell growth at 100 uM after 48 hrs by SRB assay; conditions: read-out: Activity
786-0 [17] = assay: Growth inhibition of human 786-0 cells assessed as cell growth at 1 uM after 48 hrs by SRB assay; conditions: 786-0, 48 h, read-out: Activity
SK-MEL-2 = assay: Growth inhibition of human SK-MEL-2 cells assessed as cell growth at 0.1 uM after 48 hrs by SRB assay; conditions: SK-MEL-2, 48 h, read-out: Activity
SNB-75 = assay: Growth inhibition of human SNB75 cells after 48 hrs by […] growth inhibition assay; conditions: SNB-75, 48 h
NCI-H23 [18] = assay: Growth inhibition of human NCI-H23 cells assessed as cell growth at 1 mM after 48 hrs by SRB assay; conditions: NCI-H23, 48 h, read-out: Activity
NCI-H226 = assay: Growth inhibition of human NCI-H226 cells assessed as cell growth at 1 mM after 48 hrs by SRB assay; conditions: NCI-H226, 48 h, read-out: Activity
OVCAR-5 [19] = assay: Growth inhibition of human OVCAR5 cells assessed as cell growth at 1 uM after 48 hrs by SRB assay; conditions: OVCAR-5, 48 h, read-out: Activity
A498 [20] = assay: Growth inhibition of human A498 cells after 48 hrs by […] growth inhibition assay; conditions: A498, 48 h
NCI/ADR-RES = assay: Growth inhibition of human NCI/ADR-RES cells assessed as cell growth at 100 uM after 48 hrs by SRB assay; conditions: read-out: Activity
Malme-3M [21] = assay: Growth inhibition of human MALME-3M cells assessed as cell growth at 100 uM after 48 hrs by SRB assay; conditions: read-out: Activity
[22] = read-out: LC50 (the source's name)
[23] = read-out: pLC50 (the source's name) (converted)

`CNC(=O)OC[C@H]1O[C@@H](n2cnc3c(NC(=O)Nc4ccccc4)ncnc32)[C@H](O[Si](C)(C)C(C)(C)C)[C@@H]1O[Si](C)(C)C(C)(C)C` showed a growth at 10 µM (HL-60(TB)) of 113%, a growth at 10 µM (A498 [1]) of 98.4% and a growth at 10 µM (SF-295 [2]) of 108%. It also gave a growth at 10 µM (OVCAR-8 [3]) of 88.8%, a growth at 10 µM (HCT-15 [4]) of 103% and a growth at 10 µM (A549) of 80.8%. For the same compound, the growth at 10 µM (NCI-H23 [5]) was 98%.

Work on `CCOC(=O)C[C@H]1[C@@H](O[Si](C)(C)C(C)(C)C)[C@H](n2cnc3c(NC(=O)Nc4ccccc4)ncnc32)O[C@@H]1CNC(=O)NC` yielded a growth at 100 µM (NCI-H23 [6]) of 65%, a growth at 100 µM (OVCAR-8 [7]) of 29% and a growth at 0.1 µM (SK-MEL-5) of 96%. It also gave a growth at 100 µM (HCC 2998) of 69%, a growth at 1000 µM (HOP-92) of -61% and a growth at 1 µM (SN12C) of 101%. For the same compound, the growth at 10 µM (HL-60(TB)) was 101%, the growth at 1000 µM (SF-268 [8]) was -53% and the growth at 1000 µM (SNB-19) was 12%. The growth at 0.1 µM (T47D) was 91%, the growth at 10 µM (A498 [1]) was 91% and the CC50 (MDA-MB-468) was > 100 µM. For the same compound, the growth at 100 µM (OVCAR-5 [9]) was 72%, the growth at 100 µM (UACC-62) was 82% and the growth at 10 µM (SF-295 [2]) was 88%. It also gave a GI50 (SF-268 [10]; read-out: GI50) of 6.53 µM, a CC50 (SF-268 [10]; [22]) of 92.5 µM and a TGI (SF-268 [10]; read-out: TGI) of 27 µM. It also gave a GI50 (SF-268 [10]; read-out: pGI50 (converted)) of 6.61 µM, a CC50 (SF-268 [10]; [23]) of 93.3 µM and a TGI (SF-268 [10]; read-out: pTGI (converted)) of 26.9 µM. For the same compound, the growth at 0.1 µM (ACHN) was 107%, the growth at 0.1 µM (Malme-3M [11]) was 104% and the growth at 10 µM (OVCAR-8 [3]) was 98%. The growth at 0.1 µM (OVCAR-3 [12]) was 114%, the growth at 1000 µM (OVCAR-3 [13]) was -53% and the growth at 1000 µM (SF-295 [14]) was 24%. For the same compound, the growth at 1000 µM (HCT-15 [15]) was 43%, the growth at 10 µM (HCT-15 [4]) was 94% and the growth at 10 µM (A549) was 94%. The growth at 1000 µM (786-0 [16]) was -97%, the growth at 100 µM (NCI-H322M) was 89% and the growth at 1 µM (786-0 [17]) was 83%. The growth at 0.1 µM (SK-MEL-2) was 102%, the GI50 (SNB-75; read-out: GI50) was 4.56 µM and the CC50 (SNB-75; [22]) was > 100 µM. For the same compound, the TGI (SNB-75; read-out: TGI) was > 100 µM, the GI50 (SNB-75; read-out: pGI50 (converted)) was 4.57 µM and the CC50 (SNB-75; [23]) was > 100 µM. For the same compound, the TGI (SNB-75; read-out: pTGI (converted)) was > 100 µM, the growth at 1000 µM (NCI-H23 [18]) was 36% and the growth at 1000 µM (NCI-H226) was 55%. The growth at 1 µM (OVCAR-5 [19]) was 103%, the GI50 (A498 [20]; read-out: GI50) was 3.34 µM and the CC50 (A498 [20]; [22]) was > 100 µM. For the same compound, the TGI (A498 [20]; read-out: TGI) was 17.1 µM, the GI50 (A498 [20]; read-out: pGI50 (converted)) was 3.31 µM and the CC50 (A498 [20]; [23]) was > 100 µM. It also gave a TGI (A498 [20]; read-out: pTGI (converted)) of 17 µM, a growth at 100 µM (NCI/ADR-RES) of 80% and a growth at 10 µM (NCI-H23 [5]) of 100%. For the same compound, the growth at 100 µM (Malme-3M [21]) was 50%.
